# Reference: US12492188B2, “1H-benzo[D]imidazole derivatives as TLR9 inhibitors for the treatment of fibrosis” (BRISTOL-MYERS SQUIBB COMPANY, priority 2020, dated 2025)
# Where two headings read alike, the source gives them in different places.
# Experiments:
# Type in all cases: cell-based
# human TLR8 = target: T1, human TLR8 (Homo sapiens, UniProt Q9NR97); experiment: TLR8 inhibition reporter assay (HEK-Blue cells, secreted embryonic alkaline phosphatase reporter); settings: HEK-Blue cells overexpressing human TLR8, stimulated with R848 15.9 μM; read-out: TLR 8 IC50
# T1 construct: host or cells: HEK-Blue cells (HEK293-derived reporter line)
# T1 sequence (Q9NR97 27-1041): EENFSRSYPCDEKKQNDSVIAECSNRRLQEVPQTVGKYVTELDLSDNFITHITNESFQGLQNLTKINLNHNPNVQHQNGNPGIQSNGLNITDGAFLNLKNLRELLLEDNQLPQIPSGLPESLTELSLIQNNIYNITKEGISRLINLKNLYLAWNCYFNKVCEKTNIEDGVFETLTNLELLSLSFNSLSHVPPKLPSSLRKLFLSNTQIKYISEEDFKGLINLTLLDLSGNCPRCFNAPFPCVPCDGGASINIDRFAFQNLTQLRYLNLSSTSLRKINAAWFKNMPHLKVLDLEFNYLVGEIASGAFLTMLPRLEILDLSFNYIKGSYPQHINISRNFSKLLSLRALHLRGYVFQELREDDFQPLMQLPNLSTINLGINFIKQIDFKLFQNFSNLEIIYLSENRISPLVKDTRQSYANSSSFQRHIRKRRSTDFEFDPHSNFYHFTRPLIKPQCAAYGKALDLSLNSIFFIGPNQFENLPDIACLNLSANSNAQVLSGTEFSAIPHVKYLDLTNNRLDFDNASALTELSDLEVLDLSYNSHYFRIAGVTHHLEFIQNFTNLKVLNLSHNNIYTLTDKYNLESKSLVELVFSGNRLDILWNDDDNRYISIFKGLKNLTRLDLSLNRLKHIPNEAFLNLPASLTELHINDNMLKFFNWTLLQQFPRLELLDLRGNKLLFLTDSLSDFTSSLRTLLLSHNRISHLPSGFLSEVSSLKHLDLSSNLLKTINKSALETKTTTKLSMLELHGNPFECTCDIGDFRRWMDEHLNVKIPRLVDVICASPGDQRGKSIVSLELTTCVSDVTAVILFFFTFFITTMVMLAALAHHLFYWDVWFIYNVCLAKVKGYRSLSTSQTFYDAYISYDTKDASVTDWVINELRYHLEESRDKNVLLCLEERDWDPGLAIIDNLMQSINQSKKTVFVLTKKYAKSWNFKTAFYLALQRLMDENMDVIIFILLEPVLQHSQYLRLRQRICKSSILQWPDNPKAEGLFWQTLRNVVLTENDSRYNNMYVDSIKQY
# Method in brief: (§1)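 Cells seeded at 15000 (TLR7), 20,000 (TLR8) or 25,000 (TLR9) per well; compound 0.05 nM–50 μM, 30 min RT pre-incubation. Agonists: gardiquimod 7.5 μM, R848 15.9 μM, ODN2006 5 nM respectively. 22 h, 37 °C; SEAP via HEK-Blue Detection; % inhibition vs agonist+DMSO and known-inhibitor wells.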
# human TLR9 = target: T2, human TLR9 (Homo sapiens, UniProt Q9NR96); experiment: TLR9 inhibition reporter assay (HEK-Blue cells, secreted embryonic alkaline phosphatase reporter)
# T2 construct: host or cells: HEK-Blue cells (HEK293-derived reporter line)
# T2 sequence (Q9NR96 26-1032): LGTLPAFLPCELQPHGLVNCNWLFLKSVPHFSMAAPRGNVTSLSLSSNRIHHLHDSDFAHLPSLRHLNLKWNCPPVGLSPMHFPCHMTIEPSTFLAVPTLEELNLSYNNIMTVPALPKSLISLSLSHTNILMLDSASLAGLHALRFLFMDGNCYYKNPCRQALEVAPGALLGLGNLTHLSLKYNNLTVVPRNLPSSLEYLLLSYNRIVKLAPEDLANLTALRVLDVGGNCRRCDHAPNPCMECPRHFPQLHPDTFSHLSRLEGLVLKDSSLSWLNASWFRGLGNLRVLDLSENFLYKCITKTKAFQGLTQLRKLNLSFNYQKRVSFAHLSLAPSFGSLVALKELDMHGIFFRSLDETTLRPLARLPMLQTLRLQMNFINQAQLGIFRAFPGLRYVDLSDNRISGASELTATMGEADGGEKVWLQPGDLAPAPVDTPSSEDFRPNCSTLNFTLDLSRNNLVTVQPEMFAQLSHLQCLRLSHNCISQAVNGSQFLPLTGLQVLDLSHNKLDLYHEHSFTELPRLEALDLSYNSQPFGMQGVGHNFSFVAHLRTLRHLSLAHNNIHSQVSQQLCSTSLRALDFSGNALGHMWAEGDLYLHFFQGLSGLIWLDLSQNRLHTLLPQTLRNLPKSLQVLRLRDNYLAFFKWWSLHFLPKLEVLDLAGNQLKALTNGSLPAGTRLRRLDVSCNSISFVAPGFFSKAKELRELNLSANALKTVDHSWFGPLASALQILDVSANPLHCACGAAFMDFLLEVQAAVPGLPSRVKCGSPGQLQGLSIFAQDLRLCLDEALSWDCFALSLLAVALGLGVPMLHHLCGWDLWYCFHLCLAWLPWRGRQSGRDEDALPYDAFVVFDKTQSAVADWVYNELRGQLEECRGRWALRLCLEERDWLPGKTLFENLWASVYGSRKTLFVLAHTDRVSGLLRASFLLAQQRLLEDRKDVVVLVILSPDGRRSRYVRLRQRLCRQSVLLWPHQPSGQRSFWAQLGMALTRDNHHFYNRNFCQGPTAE
# Method in brief: as §1
# human TLR7 = target: T3, human TLR7 (Homo sapiens, UniProt Q9NYK1); experiment: TLR7 inhibition reporter assay (HEK-Blue cells, secreted embryonic alkaline phosphatase reporter); settings: HEK-Blue cells overexpressing human TLR7, stimulated with gardiquimod 7.5 μM; read-out: TLR 7 IC50
# T3 construct: host or cells: HEK-Blue cells (HEK293-derived reporter line)
# T3 sequence (Q9NYK1 27-1049): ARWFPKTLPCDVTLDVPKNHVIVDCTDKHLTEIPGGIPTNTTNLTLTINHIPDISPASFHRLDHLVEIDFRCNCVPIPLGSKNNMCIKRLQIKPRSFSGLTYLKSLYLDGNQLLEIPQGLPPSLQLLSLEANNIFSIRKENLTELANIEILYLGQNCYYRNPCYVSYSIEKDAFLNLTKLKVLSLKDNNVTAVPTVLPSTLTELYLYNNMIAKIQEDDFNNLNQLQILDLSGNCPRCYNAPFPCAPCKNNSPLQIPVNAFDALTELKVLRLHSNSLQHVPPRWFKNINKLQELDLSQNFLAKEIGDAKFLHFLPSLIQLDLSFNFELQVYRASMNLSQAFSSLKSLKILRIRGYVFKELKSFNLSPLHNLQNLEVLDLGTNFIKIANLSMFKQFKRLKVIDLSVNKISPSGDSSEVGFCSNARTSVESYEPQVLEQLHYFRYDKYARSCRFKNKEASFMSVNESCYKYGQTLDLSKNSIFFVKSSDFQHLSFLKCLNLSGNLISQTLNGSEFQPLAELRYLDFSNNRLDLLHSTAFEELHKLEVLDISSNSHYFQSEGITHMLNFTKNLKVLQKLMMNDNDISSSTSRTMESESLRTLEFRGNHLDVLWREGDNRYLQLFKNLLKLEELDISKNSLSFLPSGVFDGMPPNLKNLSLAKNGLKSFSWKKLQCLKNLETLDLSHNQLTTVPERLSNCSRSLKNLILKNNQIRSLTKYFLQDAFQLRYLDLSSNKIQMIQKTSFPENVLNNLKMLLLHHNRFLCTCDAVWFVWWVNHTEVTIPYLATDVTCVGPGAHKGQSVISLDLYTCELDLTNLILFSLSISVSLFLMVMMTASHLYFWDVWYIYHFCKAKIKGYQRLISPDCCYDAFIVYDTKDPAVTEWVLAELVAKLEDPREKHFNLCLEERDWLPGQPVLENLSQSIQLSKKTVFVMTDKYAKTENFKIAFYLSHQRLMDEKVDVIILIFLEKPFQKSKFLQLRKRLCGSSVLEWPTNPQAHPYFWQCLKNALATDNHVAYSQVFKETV
# Method in brief: as §1
# [1] = HEK-Blue cells overexpressing human TLR9, stimulated with ODN2006 5 nM, read-out: TLR 9 IC50
# [2] = HEK-Blue human TLR9 reporter cells
SMILES,IC50 (human TLR8),IC50 (human TLR9; [1]),IC50 (human TLR9; [2]),IC50 (human TLR7)
"Cn1c(-c2ccc(S(C)(=O)=O)cc2)nc2c(F)cc(C3CCN(C4CC5CCC(C4)N5C4COC4)CC3)cc21 (stereo not drawn) [Example 286, 4-fluoro-1-methyl-2-(4-(methylsulfonyl)phenyl)-6-(1-(8-(oxetan-3-yl)-8-azabicyclo[3.2.1]octan-3-yl)piperidin-4-yl)-1H-benzo[d]imidazole]",> 50 µM,0.041 µM,0.041 µM,29 µM
"Cn1c(-c2ccc(S(C)(=O)=O)cc2)nc2c(F)cc(C3CCN(C4CCCN(C5CCOCC5)CC4)CC3)cc21 (stereo not drawn) [Example 300, 4-fluoro-1-methyl-2-(4-(methylsulfonyl)phenyl)-6-(1-(1-(tetrahydro-2H-pyran-4-yl)azepan-4-yl)piperidin-4-yl)-1H-benzo[d]imidazole]",> 50 µM,0.02 µM,0.02 µM,2.9 µM
"Cc1cc(C2CCN(C3CCCN(C4COC4)CC3)CC2)cc2c1nc(-c1ccc(S(C)(=O)=O)cc1)n2C (stereo not drawn) [Example 304, 1,4-dimethyl-2-(4-(methylsulfonyl)phenyl)-6-(1-(1-(oxetan-3-yl)azepan-4-yl)piperidin-4-yl)-1H-benzo[d]imidazole]",> 50 µM,0.18 µM,0.18 µM,12.3 µM
"Cc1cc(C2CCN(C3CCCN(C4COC4)CC3)CC2)cc2c1nc(-c1ccc(S(C)(=O)=O)cc1)n2C (stereo not drawn) [Example 305, 1,4-dimethyl-2-(4-(methylsulfonyl)phenyl)-6-(1-(1-(oxetan-3-yl)azepan-4-yl)piperidin-4-yl)-1H-benzo[d]imidazole]",> 50 µM,0.09 µM,0.09 µM,8.6 µM
"Cn1c(-c2ccc(S(C)(=O)=O)cc2)nc2ccc(C3CCN(C4CCCN(C5CCC5)CC4)CC3)c(F)c21 (stereo not drawn) [Example 312, 6-(1-(1-cyclobutylazepan-4-yl)piperidin-4-yl)-7-fluoro-1-methyl-2-(4-(methylsulfonyl)phenyl)-1H-benzo[d]imidazole]",> 50 µM,0.064 µM,0.064 µM,> 50 µM
"Cn1c(-c2ccc(S(C)(=O)=O)cc2)nc2ccc(C3CCN(C4CCCN(C5CCC5)CC4)CC3)c(F)c21 (stereo not drawn) [Example 313, 6-(1-(1-cyclobutylazepan-4-yl)piperidin-4-yl)-7-fluoro-1-methyl-2-(4-(methylsulfonyl)phenyl)-1H-benzo[d]imidazole]",> 50 µM,0.069 µM,0.069 µM,> 50 µM

# Further lines, results first:
IC50 (human TLR8),IC50 (human TLR9; [1]),IC50 (human TLR9; [2]),IC50 (human TLR7),SMILES
> 50 µM,0.248 µM,0.25 µM,4.8 µM,"CC(C)CN1C2CCC1CC(N1CCC(c3cc(F)c4nc(-c5ccc(S(C)(=O)=O)cc5)n(C)c4c3)CC1)C2 (stereo not drawn) [Example 285, 4-fluoro-6-(1-(8-isobutyl-8-azabicyclo[3.2.1]octan-3-yl)piperidin-4-yl)-1-methyl-2-(4-(methylsulfonyl)phenyl)-1H-benzo[d]imidazole]"
> 50 µM,0.022 µM,0.022 µM,14.1 µM,"CC(C)CN1CCCC(N2CCC(c3cc(F)c4nc(-c5ccc(S(C)(=O)=O)cc5)n(C)c4c3)CC2)CC1 (stereo not drawn) [Example 296, 4-fluoro-6-(1-(1-isobutylazepan-4-yl)piperidin-4-yl)-1-methyl-2-(4-(methylsulfonyl)phenyl)-1H-benzo[d]imidazole]"
> 50 µM,0.023 µM,0.023 µM,12.5 µM,"CC(C)CN1CCCC(N2CCC(c3cc(F)c4nc(-c5ccc(S(C)(=O)=O)cc5)n(C)c4c3)CC2)CC1 (stereo not drawn) [Example 297, 4-fluoro-6-(1-(1-isobutylazepan-4-yl)piperidin-4-yl)-1-methyl-2-(4-(methylsulfonyl)phenyl)-1H-benzo[d]imidazole]"
> 50 µM,0.048 µM,0.048 µM,3.1 µM,"Cn1c(-c2ccc(S(C)(=O)=O)cc2)nc2c(F)cc(C3CCN(C4CCCN(C5CCOCC5)CC4)CC3)cc21 (stereo not drawn) [Example 301, 4-fluoro-1-methyl-2-(4-(methylsulfonyl)phenyl)-6-(1-(1-(tetrahydro-2H-pyran-4-yl)azepan-4-yl)piperidin-4-yl)-1H-benzo[d]imidazole]"
> 50 µM,0.046 µM,0.047 µM,> 50 µM,"CC(C)CN1CCCC(N2CCC(c3ccc4nc(-c5ccc(S(C)(=O)=O)cc5)n(C)c4c3F)CC2)CC1 (stereo not drawn) [Example 310, 7-fluoro-6-(1-(1-isobutylazepan-4-yl)piperidin-4-yl)-1-methyl-2-(4-(methylsulfonyl)phenyl)-1H-benzo[d]imidazole]"
> 50 µM,0.072 µM,0.072 µM,> 50 µM,"CC(C)CN1CCCC(N2CCC(c3ccc4nc(-c5ccc(S(C)(=O)=O)cc5)n(C)c4c3F)CC2)CC1 (stereo not drawn) [Example 311, 7-fluoro-6-(1-(1-isobutylazepan-4-yl)piperidin-4-yl)-1-methyl-2-(4-(methylsulfonyl)phenyl)-1H-benzo[d]imidazole]"
